Reference: paper PMC3091225 (The Journal of Biological Chemistry, 2011)

Assays:
Assay in all cases: direct fluorescence titration of TBG into fluorophore
Assay type in all cases: binding
[1] = biological target: T1, TBG (wild-type, native, intact reactive loop) (Homo sapiens, UniProt P05543)
T1 sequence (P05543 21-415): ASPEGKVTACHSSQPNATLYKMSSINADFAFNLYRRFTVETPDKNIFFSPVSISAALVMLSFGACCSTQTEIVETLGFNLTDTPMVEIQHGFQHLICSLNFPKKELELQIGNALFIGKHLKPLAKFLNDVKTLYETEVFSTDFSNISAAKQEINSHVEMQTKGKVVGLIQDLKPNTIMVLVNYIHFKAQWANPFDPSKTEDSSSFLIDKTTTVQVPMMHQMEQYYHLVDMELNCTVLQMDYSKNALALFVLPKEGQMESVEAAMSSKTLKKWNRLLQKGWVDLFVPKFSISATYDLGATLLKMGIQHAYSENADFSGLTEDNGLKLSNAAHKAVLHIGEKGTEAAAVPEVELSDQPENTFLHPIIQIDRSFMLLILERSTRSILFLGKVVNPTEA

[2] = biological target: T2, cleaved TBG (wild-type, reactive loop cleaved) (Homo sapiens, UniProt P05543, DEL124-126/K123A)
T2 sequence (P05543 with tags, fused parts or gaps K123A/DEL124-126): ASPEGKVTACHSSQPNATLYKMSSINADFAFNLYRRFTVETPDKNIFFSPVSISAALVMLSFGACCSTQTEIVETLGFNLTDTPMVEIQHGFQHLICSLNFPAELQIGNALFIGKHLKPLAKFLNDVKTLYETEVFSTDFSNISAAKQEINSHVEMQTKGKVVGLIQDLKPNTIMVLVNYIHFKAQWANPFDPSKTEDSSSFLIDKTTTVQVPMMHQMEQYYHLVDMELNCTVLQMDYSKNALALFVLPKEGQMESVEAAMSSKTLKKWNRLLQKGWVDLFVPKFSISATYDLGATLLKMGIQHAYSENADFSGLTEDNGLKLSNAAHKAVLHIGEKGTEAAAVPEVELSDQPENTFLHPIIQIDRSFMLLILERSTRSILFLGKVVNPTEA

[3] = biological target: T3, TBG (wild-type, native, intact reactive loop) (Homo sapiens, UniProt P05543, DEL124-126/K123A)
T3 sequence (P05543 with tags, fused parts or gaps K123A/DEL124-126): T2 sequence (P05543 with tags, fused parts or gaps K123A/DEL124-126)

Row | Kd [1] [nM] | Kd [2] [nM] | Kd [3] [nM] | Structure (SMILES)
1 | < 0.1 |  |  | O=C(N[C@@H](Cc1cc(I)c(Oc2cc(I)c(O)c(I)c2)c(I)c1)C(=O)O)c1ccc2c(c1)C(=O)OC21c2ccc(O)cc2Oc2cc(O)ccc21 [T4–5-CF]
2 |  | 50.7 ± 3.6 | 24.9 ± 1.8 | O=C(N[C@@H](Cc1cc(I)c(Oc2cc(I)c(O)c(I)c2)c(I)c1)C(=O)O)c1ccc2c(c1)C1(OC2=O)c2ccc(O)cc2Oc2cc(O)ccc21 [T4–6-CF]
